Results as given in ChEMBL document CHEMBL4004870, “Synthesis of dihydroimidazole tethered imidazolinethiones and their activity as novel antagonists of the nuclear retinoic acid receptor-related orphan receptors (RORs)” (Bioorg Med Chem Lett, 2017).

Legend:
[1] = target: T1, Nuclear receptor ROR-beta (Rattus norvegicus, UniProt P45446); assay: Antagonist activity at rat Gal4-fused DBD RORbeta LBD (Pro-205-end) expressed in TRex-CHOK1 cells after 20 hrs by luciferase reporter gene assay; format: cell-based
T1 sequence (P45446 whole entry): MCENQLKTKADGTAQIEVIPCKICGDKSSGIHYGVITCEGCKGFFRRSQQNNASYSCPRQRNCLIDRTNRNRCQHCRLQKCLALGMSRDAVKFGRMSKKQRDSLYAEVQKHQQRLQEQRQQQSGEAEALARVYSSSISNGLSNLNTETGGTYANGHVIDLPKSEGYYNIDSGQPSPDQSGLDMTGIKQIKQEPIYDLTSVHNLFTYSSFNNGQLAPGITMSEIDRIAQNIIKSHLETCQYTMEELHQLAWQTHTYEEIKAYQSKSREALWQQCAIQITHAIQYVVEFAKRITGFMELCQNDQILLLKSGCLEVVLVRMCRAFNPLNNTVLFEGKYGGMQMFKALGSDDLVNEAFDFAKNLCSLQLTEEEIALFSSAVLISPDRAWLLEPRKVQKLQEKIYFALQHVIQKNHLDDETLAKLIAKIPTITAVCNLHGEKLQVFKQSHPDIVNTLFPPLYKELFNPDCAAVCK

[2] = target: T2, Nuclear receptor ROR-gamma (Mus musculus, UniProt P51450); assay: Antagonist activity at mouse Gal4-fused DBD RORgamma LBD (Pro-261-end) expressed in TRex-CHOK1 cells after 20 hrs by luciferase reporter gene assay; format: cell-based
T2 sequence (P51450 whole entry): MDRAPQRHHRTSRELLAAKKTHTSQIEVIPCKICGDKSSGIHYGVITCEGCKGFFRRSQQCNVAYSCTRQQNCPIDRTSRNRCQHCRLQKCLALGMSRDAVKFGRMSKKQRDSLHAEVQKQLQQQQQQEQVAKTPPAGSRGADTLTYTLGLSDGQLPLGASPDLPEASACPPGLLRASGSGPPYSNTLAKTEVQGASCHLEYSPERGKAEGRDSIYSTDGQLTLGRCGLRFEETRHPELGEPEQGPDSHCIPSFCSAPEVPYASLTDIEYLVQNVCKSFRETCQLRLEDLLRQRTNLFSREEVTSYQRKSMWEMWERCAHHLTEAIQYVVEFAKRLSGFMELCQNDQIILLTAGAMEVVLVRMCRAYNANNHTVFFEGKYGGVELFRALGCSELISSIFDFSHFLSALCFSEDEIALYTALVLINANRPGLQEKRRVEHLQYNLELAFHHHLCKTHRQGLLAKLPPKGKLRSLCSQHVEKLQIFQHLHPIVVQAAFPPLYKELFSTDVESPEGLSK

IC50 [1] [µM]	IC50 [2] [µM]	Compound
10.7	7.9	CCCC1=N[C@@H](CCCCN2C[C@H](Cc3ccccc3)N(CCC3C4CC5CC(C4)CC3C5)C2=S)CN1 (stereo not given in full)
10.9	6.5	CC(CC1=N[C@@H](CCCCN2C[C@H](Cc3ccccc3)N(CCc3ccccc3)C2=S)CN1)c1ccccc1 (stereo not given in full)
9	6.3	Cc1cccc(CC2=N[C@@H](CCCCN3C[C@H](Cc4ccccc4)N(CCc4ccccc4)C3=S)CN2)c1
8.4	6.3	COc1cccc(CC2=N[C@@H](CCCCN3C[C@H](Cc4ccccc4)N(CCc4ccccc4)C3=S)CN2)c1
12.4	7.7	Fc1ccc(CC2=N[C@@H](CCCCN3C[C@H](Cc4ccccc4)N(CCc4ccccc4)C3=S)CN2)cc1
22.3	11.8	CCCC1=N[C@@H](CCCCN2C[C@@H](C(C)(C)C)N(CCc3ccccc3)C2=S)CN1
12.4	6.6	Fc1cccc(CC2=N[C@@H](CCCCN3C[C@H](Cc4ccccc4)N(CCc4ccccc4)C3=S)CN2)c1
14.3	10.2	C=CCC1=N[C@@H](CCCCN2C[C@H](Cc3ccccc3)N(CCc3ccccc3)C2=S)CN1
9.1	5.6	S=C1N(CCCC[C@H]2CNC(CCC3CCCC3)=N2)C[C@H](Cc2ccccc2)N1CCc1ccccc1
21.1	13.7	CCCC1=N[C@@H](CCCCN2C[C@H](Cc3ccccc3)N(CC3CCC(C)CC3)C2=S)CN1 (stereo not given in full)
17.5	10.2	CCCC[C@H]1CN(CCCC[C@H]2CNC(CCC)=N2)C(=S)N1CCc1ccccc1
12.5	5.8	C/C=C/C1=N[C@@H](CCCCN2C[C@H](Cc3ccccc3)N(CCc3ccccc3)C2=S)CN1
10.2	6.4	CCCC1=N[C@@H](CCCCN2C[C@H](Cc3ccccc3)N(CCCC3CCCC3)C2=S)CN1
8.3	5.1	S=C1N(CCCC[C@H]2CNC(CC3CCCCC3)=N2)C[C@H](Cc2ccccc2)N1CCc1ccccc1
17	9.3	CCCC1=N[C@@H](CCCCN2C[C@H](Cc3ccccc3)N(CCC3CC4CCC3C4)C2=S)CN1 (stereo not given in full)
